PubChem BioAssay (NCI)
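Briefly, cells in 96-well plates were exposed to five compound concentrations for 48 h, and endpoints were estimated by linear interpolation. GI50: concentration for 50% inhibition of growth. At the TGI there is no net growth.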

Columns and labels:
Assay in all cases: growth of human tumour cells (NCI), 48 h
[1] = system: UO-31 renal
[2] = system: NCI-H522 lung
[3] = system: OVCAR-4 ovarian
[4] = system: OVCAR-8 ovarian
[5] = system: SNB-75 CNS
[6] = system: HL-60(TB) leukemia
[7] = system: COLO 205 colon
[8] = system: SF-268 CNS
[9] = system: M14 melanoma
[10] = system: HS 578T breast
[11] = system: SK-OV-3 ovarian
[12] = system: MCF7 breast
[13] = system: NCI-H23 lung
[14] = system: HOP-62 NSCLC
[15] = system: BT-549 breast
[16] = system: HOP-92 NSCLC
[17] = system: MDA-MB-231 breast
[18] = system: NCI-H460 lung
[19] = system: KM12 colon
[20] = system: A498 renal
[21] = system: OVCAR-5 ovarian
[22] = system: RXF 393 renal
[23] = system: SK-MEL-28 melanoma
[24] = system: RPMI-8226 leukemia
[25] = system: K-562 leukemia
[26] = system: SK-MEL-5 melanoma
[27] = system: ACHN renal
[28] = system: 786-0 renal
[29] = system: HCC-2998 colon
[30] = system: TK-10 renal
[31] = system: PC-3 prostate
[32] = system: NCI-H226 lung
[33] = system: SF-539 CNS
[34] = system: UACC-62 melanoma
[35] = system: MALME-3M melanoma
[36] = system: HT29 colon
[37] = system: T-47D breast
[38] = system: A549 NSCLC
[39] = system: SK-MEL-2 melanoma
[40] = system: CCRF-CEM leukemia
[41] = system: SW-620 colon
[42] = system: MDA-MB-435
[43] = system: NCI/ADR-RES ovarian
[44] = system: HCT-116 colon
[45] = system: MOLT-4 leukemia
[46] = system: SF-295 CNS
[47] = system: SR leukemia
[48] = system: LOX IMVI melanoma
[49] = system: DU-145 prostate
[50] = system: SNB-19 CNS
[51] = system: CAKI-1 renal
[52] = system: HCT-15 colon
[53] = system: UACC-257 melanoma
[54] = system: EKVX NSCLC
[55] = system: U251 CNS
[56] = system: IGROV1 ovarian
[57] = system: SN12C renal

COc1cc[c]([Hg][Cl])cc1
GI50 [1]: 14.6 µM
TGI [1]: 28.9 µM
GI50 [2]: 0.45 µM
TGI [2]: 2.61 µM
GI50 [3]: 1.96 µM
TGI [3]: 11.5 µM
GI50 [4]: 6.11 µM
TGI [4]: > 100 µM
GI50 [5]: 1.69 µM
TGI [5]: 4.37 µM
GI50 [6]: 3.08 µM
TGI [6]: 7.67 µM
GI50 [7]: 2.06 µM
TGI [7]: 4 µM
GI50 [8]: 3.27 µM
TGI [8]: 13.3 µM
GI50 [9]: 1.68 µM
TGI [9]: 3.87 µM
GI50 [10]: 1.96 µM
TGI [10]: 47.2 µM
GI50 [11]: 14.2 µM
TGI [11]: 27.3 µM
GI50 [12]: 1.01 µM
TGI [12]: 4.53 µM
GI50 [13]: 3.03 µM
TGI [13]: 22.4 µM
GI50 [14]: 20.4 µM
TGI [14]: 37.8 µM
GI50 [15]: 2.97 µM
TGI [15]: 9.16 µM
GI50 [16]: 2.26 µM
TGI [16]: 4.01 µM
GI50 [17]: 2.19 µM
TGI [17]: 4.92 µM
GI50 [18]: 10.3 µM
TGI [18]: 25.5 µM
GI50 [19]: 14.4 µM
TGI [19]: 27.8 µM
GI50 [20]: 17.6 µM
TGI [20]: 31.5 µM
GI50 [21]: 20.1 µM
TGI [21]: 37.6 µM
GI50 [22]: 1.76 µM
TGI [22]: 3.14 µM
GI50 [23]: 1.65 µM
TGI [23]: 3.36 µM
GI50 [24]: 3.39 µM
TGI [24]: 14.7 µM
GI50 [25]: 1.84 µM
TGI [25]: 6.73 µM
GI50 [26]: 2.71 µM
TGI [26]: 11.1 µM
GI50 [27]: 1.81 µM
TGI [27]: 3.47 µM
GI50 [28]: 3.76 µM
TGI [28]: 10.8 µM
GI50 [29]: 13.5 µM
TGI [29]: 27.8 µM
GI50 [30]: 17.5 µM
TGI [30]: 31.4 µM
GI50 [31]: 16.2 µM
TGI [31]: 31.8 µM
GI50 [32]: 22.9 µM
TGI [32]: 50.6 µM
GI50 [33]: 3.3 µM
TGI [33]: 11.1 µM
GI50 [34]: 4.09 µM
TGI [34]: 14.9 µM
GI50 [35]: 1.88 µM
TGI [35]: 3.69 µM
GI50 [36]: 5.4 µM
TGI [36]: 61 µM
GI50 [37]: 1.68 µM
TGI [37]: 4.47 µM
GI50 [38]: 23.8 µM
TGI [38]: 40.8 µM
GI50 [39]: 4.39 µM
TGI [39]: 17.4 µM
GI50 [40]: 1.06 µM
TGI [40]: 5.4 µM
GI50 [41]: 1.54 µM
TGI [41]: 3.18 µM
GI50 [42]: 1.61 µM
TGI [42]: 3.2 µM
GI50 [43]: 11.7 µM
TGI [43]: > 100 µM
GI50 [44]: 4.49 µM
TGI [44]: 18.4 µM
GI50 [45]: 1.64 µM
TGI [45]: 6.59 µM
GI50 [46]: 15.5 µM
TGI [46]: 29.7 µM
GI50 [47]: 0.245 µM
TGI [47]: 4.13 µM
GI50 [48]: 1.42 µM
TGI [48]: 2.74 µM
GI50 [49]: 5.23 µM
TGI [49]: 18.2 µM
GI50 [50]: 4.59 µM
TGI [50]: 16.6 µM
GI50 [51]: 6.55 µM
TGI [51]: 23 µM
GI50 [52]: 1.08 µM
TGI [52]: 2.36 µM
GI50 [53]: 4.16 µM
TGI [53]: 14.5 µM
GI50 [54]: 9.51 µM
TGI [54]: 22.8 µM
GI50 [55]: 1.82 µM
TGI [55]: 3.51 µM
GI50 [56]: 1.53 µM
TGI [56]: 3.92 µM
GI50 [57]: 2.51 µM
TGI [57]: 6.17 µM
